Data taken from patent publication US8486991B2, “Enantiomerically pure phosphoindoles as HIV inhibitors” (Idenix Pharmaceuticals, Inc., priority 2006, dated 2013).
Entries after “also recorded” stand apart in the source; their conditions may differ. Like-named read-outs stand apart in the source and are kept apart here.

Legend:
[1] = system: HIV-1 BH10 K103N mutant virus; assay: microbe, parasite or virus in culture; type: cell-based; conditions: for EC50: unit inferred; for Fold Change, K103N: Table 7
wild-type HIV-1 virus = assay: In vitro drug-drug interaction with NRTIs and PIs, MT-4 cells, 45% HS; type: cell-based; conditions: 45% human serum, low (1×) and high (5×) concentration
Method: The in vitro effect of each antiretroviral drug on the antiviral activity of either test article was tested in triplicate on wild-type HIV-1 virus infection of MT-4 human T cells using a standard drug susceptibility assay (DSA) performed in 45% human serum (HS) to provide a better estimate of interactions that would occur under protein binding conditions found in vivo. Compound I or Compound III were titrated alone or in combination with each NRTI or PI.
The impact of each NRTI or PI on the efficacy of Compound I or Compound III was tested at two different drug concentrations, a “low” (1×) and a “high” (5×) concentration; the high concentration used for each compound was determined from pilot experiments conducted to ensure that measurable inhibition values could still be obtained in the presence of 45% HS.
These in vitro drug-drug interaction studies were powered primarily to determine the potential for negative interactions between the different classes of HIV drugs, rather than to examine the potential for synergy between the different agents.

[2] = In vitro half-life in liver microsomes, rat; type: in vitro ADME; conditions: up to one hour, longer half-lives are extrapolated, n=1
Method: In vitro metabolism was assessed using liver microsomes for all species. Compounds were incubated at 1 μM with liver microsomes for up to one hour. Reported half-lives greater than the total incubation time are extrapolated values. Extracts were assayed for disappearance of parent compound by LC-MS/MS detection.
Data represents one independent experiment conducted.

HIV-2 ROD = HIV-2 ROD WT in H9 cell assay; type: cell-based
Method: The susceptibility of HIV type 2 ROD in H9 cells to Compound I and Compound III was determined against zidovudine (AZT) as a control.

CYP3A4 = CYP3A4 (Homo sapiens, UniProt P08684); assay: Human liver microsomal CYP450 inhibition, CYP3A4; conditions: for Ki / Type of inhibition, CYP3A4 (Midazolam) / Type of inhibition, CYP3A4 (Testosterone) / kinact: human liver microsomes; for IC50: pooled human liver microsomes, probe midazolam and testosterone; for type of inhibition of CYP3A4: text b965, substrate not stated
[3] = target: T1, wild-type HIV-1 RT enzyme in BH10 backbone (Human immunodeficiency virus type 1 group M subtype B, UniProt P03366); assay: biochemical; conditions: for IC50: Average IC50 Values ± Standard Deviation, W.T.; for Fold Change, W.T.: Table 2, mutant vs wild-type; for Average Fold Changes ± Standard Deviation, W.T.: Table 4, IC50 mutant / IC50 wild-type
T1 construct: wild-type HIV RT enzyme derived from HIV subtype B (BH-10 strain)
From the text: In Vitro Antiviral Activity Against Additional Mutant HIV RT Enzymes

CYP2C9 [4] = target: T2, CYP2C9 (Homo sapiens, UniProt P11712); assay: Human liver microsomal CYP450 inhibition, CYP2C9; conditions: for Type of inhibition, CYP2C9 (Diclofenac): human liver microsomes
Method: (§1) In addition, the type of inhibition was also evaluated.
(§2) Enzyme kinetic studies of cytochrome P450 isozyme inhibition were conducted using human liver microsomes.
Probe substrate for 2C8 was paclitaxel, probe substrate for 2C9 was diclofenac and for 3A4 probe substrates were midazolam and testosterone.

[5] = Plasma protein binding by equilibrium dialysis, dog; type: in vitro ADME; conditions: for fraction unbound: dog, read-out: Percentage Plasma Protein Binding, Dogs
Method: The in vitro plasma protein binding of compound I and compound III in rat, dog, monkey and human plasma was determined by equilibrium dialysis. Protein binding was assessed by equilibrium dialysis using rat, dog, monkey and human plasma. Samples were assayed by HPLC with LC-MS/MS detection. Plasma protein binding was high (>99%) for all species and for both compounds.

[6] = In vivo pharmacokinetics, dogs; conditions: both sexes, Dog; for Tmax: mean; for bioavailability: read-out: BA (absolute oral bioavailability)
Method: All animals received a single oral or intravenous dose of compound in either polyethylene glycol 400 (PEG400) or a mixture of 10% ethanol (EtOH), 10% dimethylacetamine (DMA) and 80% PEG400 at the indicated dose level. Plasma concentration data were acquired using sensitive and specific LC-MS/MS methods. Pharmacokinetic data from the toxicity study included aspects of gender differences, variability and exposure.
Blood samples (1.5-2.5 mL) were collected in heparinized tubes at 0 (pre-dose), 5 (IV only), 10, 20, 30 min, 1, 2, 4, 6, 8, 12 (PO only) and 24 hr after dosing. Plasma was separated and stored at −70° C. until analysis.
Concentrations of unlabeled compound I and compound III within plasma samples and excreta from rat, dog and monkey PK studies were identified through high performance liquid chromatographic (HPLC) methods that incorporated tandem mass spectrometric detection (LC-MS/MS).
The absolute oral bioavailability was determined in pharmacokinetic by comparison of AUC values of parent compound following single intravenous and oral doses of in rats (compound III only), dogs and monkeys.

CYP2C9 [7] = target: T2, CYP2C9; assay: Recombinant CYP450 inhibition, Luciferin-H, CYP2C9; type: in vitro ADME; parameters: from tissue; host or cells: pooled human liver microsomes; conditions: highest concentration tested 10 μM
Method: CYP2C9 inhibition was performed by incubating a luminogenic CYP450 substrate Luciferin-H with CYP2C9 and an NADPH regeneration system. Luminescence measured using a Fusion plate reader.

CYP1A2 = target: T3, CYP1A2 (Homo sapiens, UniProt P05177); assay: Human liver microsomal CYP450 inhibition, CYP1A2; conditions: for IC50, CYP1A2: human liver microsomes
T3 sequence (P05177 1-516): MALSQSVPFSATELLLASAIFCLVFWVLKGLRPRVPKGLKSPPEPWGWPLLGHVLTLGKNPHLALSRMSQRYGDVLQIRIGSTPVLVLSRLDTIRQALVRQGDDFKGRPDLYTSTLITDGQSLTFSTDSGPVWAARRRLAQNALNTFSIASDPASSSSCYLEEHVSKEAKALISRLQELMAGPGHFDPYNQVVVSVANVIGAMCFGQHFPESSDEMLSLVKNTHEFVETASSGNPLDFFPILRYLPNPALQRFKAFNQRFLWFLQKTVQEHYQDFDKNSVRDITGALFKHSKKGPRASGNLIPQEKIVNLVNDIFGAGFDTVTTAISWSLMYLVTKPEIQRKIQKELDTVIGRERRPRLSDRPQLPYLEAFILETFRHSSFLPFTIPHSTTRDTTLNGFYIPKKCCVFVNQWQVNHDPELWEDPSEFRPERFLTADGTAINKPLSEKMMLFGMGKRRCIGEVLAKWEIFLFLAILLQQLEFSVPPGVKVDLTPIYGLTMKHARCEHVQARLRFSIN
Method: as §1, §2

[8] = Table 18, highest concentration assayed 1.25 μM
[9] = CYP3A4 (Testosterone), time dependent inhibition
[10] = Table 1, in presence of detergent
[11] = human, pooled human liver microsomes, probe diclofenac
[12] = plasma, 20 mg/kg PO-Fed, 1M, 1F

T2 sequence (P11712 whole entry): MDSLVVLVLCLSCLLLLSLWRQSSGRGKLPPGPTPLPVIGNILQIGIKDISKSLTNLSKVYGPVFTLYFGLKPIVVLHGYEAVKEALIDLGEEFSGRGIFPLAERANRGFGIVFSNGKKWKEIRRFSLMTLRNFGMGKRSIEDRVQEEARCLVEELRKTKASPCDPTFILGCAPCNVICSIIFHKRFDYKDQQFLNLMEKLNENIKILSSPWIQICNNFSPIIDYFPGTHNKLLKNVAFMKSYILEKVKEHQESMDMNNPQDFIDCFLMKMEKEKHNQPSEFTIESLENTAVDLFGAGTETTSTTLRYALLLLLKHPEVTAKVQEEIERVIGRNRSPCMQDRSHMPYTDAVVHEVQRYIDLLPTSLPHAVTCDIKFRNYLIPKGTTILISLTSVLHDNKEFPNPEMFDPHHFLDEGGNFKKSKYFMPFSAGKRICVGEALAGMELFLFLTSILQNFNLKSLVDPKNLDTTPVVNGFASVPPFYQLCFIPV
CYP3A4, sequence (P08684 whole entry): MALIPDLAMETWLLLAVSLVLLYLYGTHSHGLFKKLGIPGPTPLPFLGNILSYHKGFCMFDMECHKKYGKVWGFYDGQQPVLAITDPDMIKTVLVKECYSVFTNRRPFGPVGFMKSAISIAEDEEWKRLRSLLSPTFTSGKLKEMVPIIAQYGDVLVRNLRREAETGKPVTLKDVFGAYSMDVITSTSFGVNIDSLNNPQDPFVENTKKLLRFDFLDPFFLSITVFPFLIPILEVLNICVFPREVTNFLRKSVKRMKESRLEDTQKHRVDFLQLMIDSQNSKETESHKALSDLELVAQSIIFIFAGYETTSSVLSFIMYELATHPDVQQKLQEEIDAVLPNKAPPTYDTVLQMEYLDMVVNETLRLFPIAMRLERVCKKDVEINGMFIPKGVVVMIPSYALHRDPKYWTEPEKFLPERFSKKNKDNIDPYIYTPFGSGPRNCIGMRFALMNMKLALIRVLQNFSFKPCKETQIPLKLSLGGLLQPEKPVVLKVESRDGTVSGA

## CO[P@](=O)(c1cc(C)cc(/C=C/C#N)c1)c1c(C(N)=O)[nH]c2ccc(Cl)c(F)c12 [Compound I, (2-Carbamoyl-5-chloro-4-fluoro-1H-indol-3-yl)-[3-((E)-2-cyano-vinyl)-5-methyl-phenyl]-(R)-phosphinic acid methyl ester]
[1]; Human immunodeficiency virus 1, MT4, read-out: EC50, K103N, Example 16 comparative tables
  EC50: 0.6 ± 0.2 nM
[1]
  Fold Change, K103N: 0.9 ± 0.4 fold
[1]; read-out: EC50, K103N, Example 16 comparative tables
  EC50: 0.9 nM
wild-type HIV-1 virus
  interaction with 7 NRTIs or 6 PIs: no negative interaction observed; also recorded: none of the seven HIV NRTI drugs or the six HIV PI drugs tested exhibited a measurable negative or antagonistic interaction
[2]; microsomes
  half-life at 1 μM: 1.67 h
HIV-2 ROD; Human immunodeficiency virus 2, H9, read-out: EC50 Values
  EC50: > 1250 nM
HIV-2 ROD; [8]
  EC50 Values: failed to suppress HIV-2 ROD replication
CYP3A4; [9]
  Ki: 140 nM
CYP3A4
  Type of inhibition, CYP3A4 (Midazolam): mechanism-based inhibition
  Type of inhibition, CYP3A4 (Testosterone): mechanism-based inhibition
  type of inhibition of CYP3A4: mechanism based inhibition
CYP3A4; human, 3A4, Example 18 table
  Ki: 360 nM
CYP3A4; human, probe midazolam
  kinact: 0.0012 s⁻¹
CYP3A4; human, probe midazolam, CYP3A4 (Midazolam), time dependent inhibition
  Ki: 180 nM
CYP3A4; human, probe testosterone
  kinact: 0.00055 s⁻¹
CYP3A4; human
  IC50: < 10000 nM
[3]; [10]
  IC50: 366 ± 251 nM
[3]; Table 3, N=10
  IC50: 230 ± 50 nM
[3]
  Fold Change, W.T.: 1 fold
  Average Fold Changes ± Standard Deviation, W.T.: 1 fold
CYP2C9 [4]
  Ki: 1400 nM
  Type of inhibition, CYP2C9 (Diclofenac): competitive inhibition
CYP2C9 [4]; listed as compound I
  Type of inhibition, CYP2C9 (Diclofenac): competitive inhibition
CYP2C9 [4]; [11]
  IC50: < 10000 nM
  Ki: 1450 nM
[5]
  Percentage Plasma Protein Binding, Dogs: 99.0%
[5]; plasma
  fraction unbound: < 0.01
[6]; in vivo, 5 mg/kg PO-Fed, M+F
  Tmax: 0.3 h
[6]; in vivo, 5 mg/kg PO-Fed, M+F, IV 1 mg/kg
  bioavailability: 9%
CYP2C9 [7]
  IC50: 8400 ± 670 nM
CYP1A2
  IC50: > 20000 nM
  IC50, CYP1A2: not observed

## CO[P@](=O)(c1cc(C)cc(/C=C/C#N)c1)c1c(C(N)=O)[nH]c2ccc(Cl)cc12 [Compound III, (2-Carbamoyl-5-chloro-1H-indol-3-yl)-[3-((E)-2-cyano-vinyl)-5-methyl-phenyl]-(R)-phosphinic acid methyl ester]
[1]
  Fold Change, K103N: 1.2 ± 0.4 fold
wild-type HIV-1 virus
  interaction with 7 NRTIs or 6 PIs: no negative interaction observed; also recorded: none of the seven HIV NRTI drugs or the six HIV PI drugs tested exhibited a measurable negative or antagonistic interaction
[2]; liver microsomes
  half-life at 1 μM: 1.48 h
HIV-2 ROD; Human immunodeficiency virus 2, H9, Table 18, highest concentration assayed 1.25 μM, read-out: EC50 Values
  EC50: > 1250 nM
HIV-2 ROD; [8]
  EC50 Values: failed to suppress HIV-2 ROD replication
CYP3A4; CYP3A4 (Midazolam), time dependent inhibition
  Ki: 60 nM
CYP3A4; [9]
  Ki: 210 nM
CYP3A4
  Type of inhibition, CYP3A4 (Midazolam): mechanism-based inhibition
  Type of inhibition, CYP3A4 (Testosterone): mechanism-based inhibition
  type of inhibition of CYP3A4: mechanism based inhibition
CYP3A4; human, probe midazolam
  kinact: 0.001 s⁻¹
CYP3A4; human, probe testosterone
  kinact: 0.000833 s⁻¹
CYP3A4; human
  IC50: < 10000 nM
[3]; [10]
  IC50: 343 ± 83 nM
[3]; Table 3, N=10
  IC50: 210 ± 20 nM
[3]
  Fold Change, W.T.: 1 fold
  Average Fold Changes ± Standard Deviation, W.T.: 1 fold
CYP2C9 [4]
  Ki: 930 nM
  Type of inhibition, CYP2C9 (Diclofenac): competitive inhibition
CYP2C9 [4]; listed as compound III
  Type of inhibition, CYP2C9 (Diclofenac): competitive inhibition
CYP2C9 [4]; [11]
  IC50: < 10000 nM
[5]
  Percentage Plasma Protein Binding, Dogs: 99.4%
[5]; dog plasma
  fraction unbound: < 0.01
[6]; plasma, 5 mg/kg PO-Fed, M+F
  Tmax: 1.5 h
[6]; plasma, 5 mg/kg PO-Fed, M+F, IV 1 mg/kg
  bioavailability: 4%
[6]; [12]
  Tmax: 2.2 h
  bioavailability: 23%
CYP2C9 [7]
  IC50: 6850 ± 480 nM
CYP1A2
  IC50: > 20000 nM
  IC50, CYP1A2: not observed
